Measured values from patent US8586538B2, “Method of treating a patient suffering from a bleeding disorder comprising administering an antibody against the A3-C1 of FVIII” (Stichting Sanquin Bloedvoorziening, priority 2002, dated 2013).

Tested on: LRP cluster II
Assay: SPR binding of LRP cluster II to immobilized light chains (FVIII, FVa, FVIII/FV chimera)
Conditions: LRP cluster II 100 nM; immobilized light chain
Method: FIG. 3. Binding of LRP cluster II to immobilized FVa light chain. […] Response is indicated as Resonance Units (RU) and is corrected for nonspecific binding, which was less than 5% relative to coated channels.
FIG. 6. Binding of LRP cluster II to the FVIII/FV^1811-1818 light chain chimera. ScFv EL14 at a CM5 sensor chip (67 fmol/mm^2) was incubated with either the recombinant wild-type FVIII light chain or the recombinant FVIII/FV^1811-1818 chimera till a density of 20 fmol/mm^2, in 150 mM NaCl, 50 mM Tris (pH 7.4). […] Bound LRP cluster II is expressed as the amount associated after 2 min.
The kinetics of protein interactions was determined by surface plasmon resonance (SPR) analysis, employing a BIAcore™2000 biosensor system (Biacore AS, Uppsala, Sweden). […] Association of analyte was assessed in 150 mM NaCl, 2 mM CaCl2, 0.005% (v/v) Tween® 20, and 20 mM Hepes (pH 7.4) for 2 min, at a flow rate of 20 μl/min at 25° C. […] The association (kon) and dissociation (koff) rate constants were determined by using the BIAevaluation software 3.1 (Biacore AB, Uppsala, Sweden). […] Equilibrium dissociation constants (kd) were calculated from the ratio koff/kon. […]

LRP cluster II, sequence (Q07954 803-1182 limits assumed): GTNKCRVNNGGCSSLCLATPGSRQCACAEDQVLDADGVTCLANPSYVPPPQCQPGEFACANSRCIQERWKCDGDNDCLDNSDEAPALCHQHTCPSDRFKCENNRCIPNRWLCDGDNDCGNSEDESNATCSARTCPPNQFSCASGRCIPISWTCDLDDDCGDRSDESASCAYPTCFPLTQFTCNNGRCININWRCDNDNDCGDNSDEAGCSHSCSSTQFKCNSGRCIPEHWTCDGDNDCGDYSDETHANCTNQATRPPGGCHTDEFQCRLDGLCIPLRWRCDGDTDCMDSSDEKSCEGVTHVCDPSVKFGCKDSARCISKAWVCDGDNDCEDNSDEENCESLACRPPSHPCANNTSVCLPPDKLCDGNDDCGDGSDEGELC

For “FVa light chain: light chain of thrombin-activated human Factor V purified from plasma”, the “Binding to LRP cluster II” value was “did not interact”.
